Data as given in ChEMBL document CHEMBL3992502, “Structural optimization of diphenylpyrimidine derivatives (DPPYs) as potent Bruton's tyrosine kinase (BTK) inhibitors with improved activity toward B leukemia cell lines” (Eur J Med Chem, 2017).

Experiments:
Ramos [1] = experiment: Antiproliferative activity against human Ramos cells after 48 hrs by CCK-8 assay; type: functional, cell-based
[2] = molecular target: T1, Tyrosine-protein kinase BTK (Homo sapiens, UniProt Q06187); experiment: Inhibition of N-terminal His-tagged full length human recombinant BTK expressed in baculovirus infected Sf9 insect cells using Poly (4:1 Glu, Tyr) peptide substrate incubated for 60 mins by ADP-Glo luminescence assay
T1 sequence (Q06187 whole entry): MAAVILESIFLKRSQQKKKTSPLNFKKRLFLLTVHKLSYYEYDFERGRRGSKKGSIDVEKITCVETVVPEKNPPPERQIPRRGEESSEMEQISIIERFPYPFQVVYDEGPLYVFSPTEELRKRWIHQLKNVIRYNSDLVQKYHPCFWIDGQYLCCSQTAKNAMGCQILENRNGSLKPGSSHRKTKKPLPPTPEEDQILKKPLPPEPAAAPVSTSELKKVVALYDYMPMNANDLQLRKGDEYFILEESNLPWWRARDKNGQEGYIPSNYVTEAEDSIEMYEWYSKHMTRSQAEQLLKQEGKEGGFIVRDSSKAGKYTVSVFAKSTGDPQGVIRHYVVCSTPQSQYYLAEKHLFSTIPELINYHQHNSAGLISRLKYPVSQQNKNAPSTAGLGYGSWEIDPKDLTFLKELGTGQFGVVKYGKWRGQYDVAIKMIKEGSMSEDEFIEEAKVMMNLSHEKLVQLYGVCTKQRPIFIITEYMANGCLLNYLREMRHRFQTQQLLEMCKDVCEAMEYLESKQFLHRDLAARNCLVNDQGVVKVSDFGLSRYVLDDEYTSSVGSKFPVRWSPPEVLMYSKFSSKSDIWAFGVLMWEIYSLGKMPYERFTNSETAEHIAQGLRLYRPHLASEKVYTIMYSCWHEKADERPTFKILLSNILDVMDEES

Raji = experiment: Antiproliferative activity against human Raji cells after 48 hrs by CCK-8 assay
Ramos [3] = experiment: Induction of apoptosis in human Ramos cells assessed as early apoptotic cells at 10 uM after 48 hrs by Annexin V-FITC/propidium iodide staining based flow cytometry (reference value: 1.7%); type: functional
Ramos [4] = experiment: Induction of apoptosis in human Ramos cells assessed as necrotic cells at 10 uM after 48 hrs by Annexin V-FITC/propidium iodide staining based flow cytometry (reference value: 1%); type: functional
Ramos [5] = experiment: Induction of apoptosis in human Ramos cells assessed as viable cells at 10 uM after 48 hrs by Annexin V-FITC/propidium iodide staining based flow cytometry (reference value: 94.3%); type: functional; conditions: read-out: Activity
Ramos [6] = experiment: Induction of apoptosis in human Ramos cells assessed as late apoptotic cells at 10 uM after 48 hrs by Annexin V-FITC/propidium iodide staining based flow cytometry (reference value: 3%); type: functional
Ramos [7] = experiment: Cell cycle arrest in human Ramos cells assessed as accumulation at G0/G1 phase at 10 uM after 48 hrs by propidium iodide staining based flow cytometry (reference value: 56.19%); type: functional
Ramos [8] = experiment: Cell cycle arrest in human Ramos cells assessed as accumulation at G2/M phase at 10 uM after 48 hrs by propidium iodide staining based flow cytometry (reference value: 1.58%); type: functional
Ramos [9] = experiment: Cell cycle arrest in human Ramos cells assessed as accumulation at S phase at 10 uM after 48 hrs by propidium iodide staining based flow cytometry (reference value: 42.23%); type: functional
PBMC = experiment: Cytotoxicity against human PBMC assessed as change in cell morphology at <20 uM after 24 hrs by phase contrast microscopy; type: cell-based
Ramos [10] = experiment: Cell cycle arrest in human Ramos cells assessed as accumulation at G2/M phase at 20 uM after 48 hrs by propidium iodide staining based flow cytometry (reference value: 1.58%); type: functional
Ramos [11] = experiment: Induction of apoptosis in human Ramos cells assessed as viable cells at 20 uM after 48 hrs by Annexin V-FITC/propidium iodide staining based flow cytometry (reference value: 94.3%); type: functional; conditions: read-out: Activity
Ramos [12] = experiment: Induction of apoptosis in human Ramos cells assessed as necrotic cells at 20 uM after 48 hrs by Annexin V-FITC/propidium iodide staining based flow cytometry (reference value: 1%); type: functional
Ramos [13] = experiment: Induction of apoptosis in human Ramos cells assessed as late apoptotic cells at 20 uM after 48 hrs by Annexin V-FITC/propidium iodide staining based flow cytometry (reference value: 3%); type: functional
Ramos [14] = experiment: Induction of apoptosis in human Ramos cells assessed as early apoptotic cells at 5 uM after 48 hrs by Annexin V-FITC/propidium iodide staining based flow cytometry (reference value: 1.7%); type: functional
Ramos [15] = experiment: Induction of apoptosis in human Ramos cells assessed as viable cells at 5 uM after 48 hrs by Annexin V-FITC/propidium iodide staining based flow cytometry (reference value: 94.3%); type: functional; conditions: read-out: Activity
Ramos [16] = experiment: Induction of apoptosis in human Ramos cells assessed as late apoptotic cells at 5 uM after 48 hrs by Annexin V-FITC/propidium iodide staining based flow cytometry (reference value: 3%); type: functional
Ramos [17] = experiment: Cell cycle arrest in human Ramos cells assessed as accumulation at G2/M phase at 5 uM after 48 hrs by propidium iodide staining based flow cytometry (reference value: 1.58%); type: functional
Ramos [18] = experiment: Cell cycle arrest in human Ramos cells assessed as accumulation at G0/G1 phase at 20 uM after 48 hrs by propidium iodide staining based flow cytometry (reference value: 56.19%); type: functional
[19] = molecular target: T1, Tyrosine-protein kinase BTK; experiment: Irreversible inhibition of N-terminal His-tagged full length human recombinant BTK expressed in baculovirus infected Sf9 insect cells using Poly (4:1 Glu, Tyr) peptide substrate assessed as luminescence of compound linked enzyme at 5000 nmol/L incubated for 60 mins by ADP-Glo kinase assay (reference value: 9976)
Ramos [20] = experiment: Cell cycle arrest in human Ramos cells assessed as accumulation at S phase at 20 uM after 48 hrs by propidium iodide staining based flow cytometry (reference value: 42.23%); type: functional
Ramos [21] = experiment: Cell cycle arrest in human Ramos cells assessed as accumulation at G0/G1 phase at 5 uM after 48 hrs by propidium iodide staining based flow cytometry (reference value: 56.19%); type: functional
Ramos [22] = experiment: Induction of apoptosis in human Ramos cells assessed as early apoptotic cells at 20 uM after 48 hrs by Annexin V-FITC/propidium iodide staining based flow cytometry (reference value: 1.7%); type: functional
Ramos [23] = experiment: Cell cycle arrest in human Ramos cells assessed as accumulation at S phase at 5 uM after 48 hrs by propidium iodide staining based flow cytometry (reference value: 42.23%); type: functional
Ramos [24] = experiment: Induction of apoptosis in human Ramos cells assessed as necrotic cells at 5 uM after 48 hrs by Annexin V-FITC/propidium iodide staining based flow cytometry (reference value: 1%); type: functional

Q: For `C=CC(=O)Nc1cccc(Nc2nc(Nc3ccc(NC(=O)CN(CCOC)CCOC)c(C)c3)ncc2Cl)c1`, which IC50 (Ramos [1]) is on record?
A: Its IC50 is 19.6 µM.

Q: What about the IC50 [2] of the same compound?
A: Its IC50 is 0.02 µM.

Q: What about the IC50 (Raji) of the same compound?
A: Its IC50 is 35.6 µM.

Q: What does the source list for `C=CC(=O)Nc1cccc(Nc2nc(Nc3ccc(OCCOC)cc3)ncc2F)c1` [SPEBRUTINIB]?
A: IC50 (Ramos [1]): 20.9 µM; Activity (Ramos [3]): 21.2%; Activity (Ramos [4]): 4.3%; viability at 10 µM (Ramos [5]): 54%; Activity (Ramos [6]): 20.4%; IC50 (Raji): 29.4 µM; Activity (Ramos [7]): 31.02%; Activity (Ramos [8]): 20.91%; Activity (Ramos [9]): 47.9%

Q: Which results are given for `C=CC(=O)Nc1cccc(Nc2nc(Nc3ccc(NC(=O)CN(CCOC)CCOC)cc3)ncc2F)c1`?
A: IC50 (Ramos [1]): 35.6 µM; IC50 [2]: 0.0913 µM; IC50 (Raji): 36.9 µM

Q: With `C=CC(=O)Nc1cccc(Nc2nc(Nc3ccc(N(CCOC)CCOC)cc3)ncc2F)c1` as the compound, how does the IC50 (Ramos [1]) read?
A: The IC50 was 18.1 µM.

Q: And the IC50 [2]?
A: The IC50 was 0.00712 µM.

Q: What about the IC50 (Raji) of the same compound?
A: The IC50 was 23.8 µM.

Q: Which results are given for `C=CC(=O)Nc1cccc(Nc2nc(Nc3ccc(OCC4CCCO4)cc3)ncc2Cl)c1` (stereo not given)?
A: Activity (PBMC): Non-Toxic; IC50 (Ramos [1]): 10.5 µM; Activity (Ramos [10]): 0.86%; viability at 20 µM (Ramos [11]): 16.2%; Activity (Ramos [12]): 0.1%; Activity (Ramos [13]): 57.2%; Activity (Ramos [14]): 11%; viability at 5 µM (Ramos [15]): 50.1%; Activity (Ramos [3]): 12.6%; Activity (Ramos [16]): 27%; Activity (Ramos [4]): 1.2%; Activity (Ramos [17]): 0%; Activity (Ramos [18]): 70.75%; Activity [19]: 383 RLU; Activity (Ramos [20]): 28.39%; viability at 10 µM (Ramos [5]): 50%; Activity (Ramos [21]): 53.18%; IC50 [2]: 0.0121 µM; Activity (Ramos [22]): 26.4%; Activity (Ramos [6]): 34.2%; IC50 (Raji): 19.1 µM; Activity (Ramos [7]): 63%; Activity (Ramos [8]): 0%; Activity (Ramos [9]): 37%; Activity (Ramos [23]): 46.82%; Activity (Ramos [24]): 2.2%

Q: With `C=CC(=O)Nc1cccc(Nc2nc(Nc3ccc(OCC(=O)OCC4CCCO4)cc3)ncc2Cl)c1` (stereo not given) as the compound, how does the IC50 (Ramos [1]) read?
A: The IC50 was over 40 µM.

Q: What about the IC50 [2] of the same compound?
A: Its IC50 is 0.00023 µM.

Q: And the IC50 (Raji)?
A: Its IC50 is 9.4 µM.

Q: What does the source list for `C=CC(=O)Nc1cccc(Nc2nc(Nc3ccc(NC(=O)CN(CCOC)CCOC)c(OC)c3)ncc2Cl)c1`?
A: IC50 (Ramos [1]): 11 µM; IC50 [2]: > 0.1 µM; IC50 (Raji): 20.9 µM

Q: Which IC50 (Ramos [1]) does the source give for `C=CC(=O)Nc1cccc(Nc2nc(Nc3ccc(NC(=O)CN(CCOC)CCOC)cc3)ncc2Cl)c1` here?
A: Its IC50 is 14.8 µM.

Q: And the IC50 [2]?
A: The IC50 was 0.0226 µM.

Q: And the IC50 (Raji)?
A: Its IC50 is 19.9 µM.

Q: `C=CC(=O)Nc1cccc(Nc2nc(Nc3ccc(OCC(=O)N(CCOC)CCOC)cc3)ncc2Cl)c1` was tested. Which IC50 (Ramos [1]) did it give?
A: The IC50 was 18.1 µM.

Q: And the IC50 [2]?
A: Its IC50 is 0.00283 µM.

Q: What about the IC50 (Raji) of the same compound?
A: Its IC50 is 20.1 µM.

Q: Which results are given for `C=CC(=O)N1CCC[C@@H](n2nc(-c3ccc(Oc4ccccc4)cc3)c3c(N)ncnc32)C1` [IBRUTINIB]?
A: IC50 (Ramos [1]): 12.6 µM; Activity (Ramos [3]): 37%; Activity (Ramos [4]): 0.1%; viability at 10 µM (Ramos [5]): 52%; Activity (Ramos [7]): 46.35%; Activity (Ramos [8]): 0.15%; Activity (Ramos [9]): 53.5%

Q: Which IC50 (Ramos [1]) does the source give for `C=CC(=O)Nc1cccc(Nc2nc(Nc3ccc(N(CCOC)CCOC)cc3)ncc2Cl)c1` here?
A: The IC50 was 13 µM.

Q: What about the IC50 [2] of the same compound?
A: The IC50 was 0.00494 µM.

Q: What about the IC50 (Raji) of the same compound?
A: The IC50 was 30.5 µM.

Q: How did the IC50 (Ramos [1]) turn out when `C=CC(=O)Nc1cccc(Nc2nc(Nc3ccc(OCC4CCCO4)cc3)ncc2F)c1` (stereo not given) was run?
A: The IC50 was 22.3 µM.

Q: What about the IC50 [2] of the same compound?
A: The IC50 was 0.0224 µM.

Q: And the IC50 (Raji)?
A: The IC50 was 38.6 µM.

Q: `C=CC(=O)Nc1cccc(Nc2nc(Nc3ccc(OCC(=O)N(CCOC)CCOC)c(Cl)c3)ncc2Cl)c1` was tested. Which IC50 (Ramos [1]) did it give?
A: Its IC50 is 16.9 µM.

Q: What about the IC50 [2] of the same compound?
A: The IC50 was over 0.1 µM.

Q: And the IC50 (Raji)?
A: Its IC50 is 19.3 µM.

Q: Which IC50 (Ramos [1]) does the source give for `C=CC(=O)Nc1cccc(Nc2nc(Nc3ccc(OCC(=O)N(CCOC)CCOC)cc3)ncc2F)c1` here?
A: The IC50 was over 40 µM.

Q: And the IC50 [2]?
A: The IC50 was 0.0272 µM.

Q: And the IC50 (Raji)?
A: The IC50 was 36 µM.
